Measured values published in publication PMC3243762 (Clinical cancer research : an official journal of the …, 2011).
Values joined by “and” are separate entries in the source; they are usually repeats but may differ in a detail not shown here. Equal entries are not always repeated. Where two headings read alike, the source gives them in different places.

Key:
[1] = system: PSMA+ PC3 PIP and PSMA− PC3 flu xenografts; settings: for Biodistribution, Bladder (empty) / Biodistribution, Blood / Biodistribution, Bone / Biodistribution, Heart / Biodistribution, Kidney / Biodistribution, Liver / Biodistribution, Lung / Biodistribution, Muscle / Biodistribution, PSMA+ PIP tumor / Biodistribution, PSMA− flu tumor / Biodistribution, Pancreas / Biodistribution, Spleen / Biodistribution, Stomach / Biodistribution, lrg. Intest / Biodistribution, sm. Intest: iv, n = 4
[2] = Human radiation dosimetry estimates
[3] = human source organ, from mouse data

Q: What does the source list for `O=C(O)CCC(NC(=O)NC(CCCCNC(=O)c1ccc([18F])nc1)C(=O)O)C(=O)O` (centres unmarked) [[^18F]DCFPyL, 2-(3-{1-Carboxy-5-[(6-[^18F]fluoro-pyridine-3-carbonyl)-amino]-pentyl}-ureido)-pentanedioic acid]?
A: Biodistribution, Bladder (empty) ([1]; 30 min pi): 18.6± 18.1 % ID/g; Biodistribution, Blood ([1]; 30 min pi): 1.53±0.19 % ID/g; Biodistribution, Bone ([1]; 30 min pi): 0.82 ±0.16 % ID/g; Biodistribution, Heart ([1]; 30 min pi): 0.68 ±0.07 % ID/g; Biodistribution, Kidney ([1]; 30 min pi): 74.1 ±6.6 % ID/g; Biodistribution, Liver ([1]; 30 min pi): 3.88 ±0.74 % ID/g; Biodistribution, Lung ([1]; 30 min pi): 1.91 ±0.47 % ID/g; Biodistribution, Muscle ([1]; 30 min pi): 0.39 ±0.05 % ID/g; Biodistribution, PSMA+ PIP tumor ([1]; 30 min pi): 46.7 ±5.8 % ID/g; Biodistribution, PSMA− flu tumor ([1]; 30 min pi): 1.17 ±0.41 % ID/g; Biodistribution, Pancreas ([1]; 30 min pi): 1.02 ±0.53 % ID/g; Biodistribution, Spleen ([1]; 30 min pi): 7.59 ±3.56 % ID/g; Biodistribution, Stomach ([1]; 30 min pi): 1.50±1.12 % ID/g; Biodistribution, lrg. Intest ([1]; 30 min pi): 0.73 ±0.04 % ID/g; Biodistribution, sm. Intest ([1]; 30 min pi): 0.79 ±0.11 % ID/g; Biodistribution, Bladder (empty) ([1]; 60 min pi): 9.88 ±4.92 % ID/g; Biodistribution, Blood ([1]; 60 min pi): 0.24 ±0.05 % ID/g; Biodistribution, Bone ([1]; 60 min pi): 0.42 ±0.15 % ID/g; Biodistribution, Heart ([1]; 60 min pi): 0.20 ±0.11 % ID/g; Biodistribution, Kidney ([1]; 60 min pi): 42.3 ±19.0 % ID/g; Biodistribution, Liver ([1]; 60 min pi): 2.87 ±0.92 % ID/g; Biodistribution, Lung ([1]; 60 min pi): 0.55 ±0.17 % ID/g; Biodistribution, Muscle ([1]; 60 min pi): 0.61 ±0.92 % ID/g; Biodistribution, PSMA+ PIP tumor ([1]; 60 min pi): 44.2 ±9.7 % ID/g; Biodistribution, PSMA− flu tumor ([1]; 60 min pi): 0.36 ±0.14 % ID/g; Biodistribution, Pancreas ([1]; 60 min pi): 0.26 ±0.13 % ID/g; Biodistribution, Spleen ([1]; 60 min pi): 2.70 ±1.28 % ID/g; Biodistribution, Stomach ([1]; 60 min pi): 0.35 ±0.34 % ID/g; Biodistribution, lrg. Intest ([1]; 60 min pi): 0.40 ±0.17 % ID/g; Biodistribution, sm. Intest ([1]; 60 min pi): 0.31 ±0.12 % ID/g; Biodistribution, Bladder (empty) ([1]; 120 min pi): 6.44 ±4.42 % ID/g; Biodistribution, Blood ([1]; 120 min pi): 0.43 ±0.37 % ID/g; Biodistribution, Bone ([1]; 120 min pi): 0.33 ±0.08 % ID/g; Biodistribution, Heart ([1]; 120 min pi): 0.06 ±0.01 % ID/g; Biodistribution, Kidney ([1]; 120 min pi): 15.7 ±3.3 % ID/g; Biodistribution, Liver ([1]; 120 min pi): 2.1 % ID/g; Biodistribution, Lung ([1]; 120 min pi): 0.18 ±0.02 % ID/g; Biodistribution, Muscle ([1]; 120 min pi): 0.04 ±0.00 % ID/g; Biodistribution, PSMA+ PIP tumor ([1]; 120 min pi): 39.4 ±5.4 % ID/g; Biodistribution, PSMA− flu tumor ([1]; 120 min pi): 0.11 ±0.02 % ID/g; Biodistribution, Pancreas ([1]; 120 min pi): 0.08 ±0.00 % ID/g; Biodistribution, Spleen ([1]; 120 min pi): 0.69 ±0.11 % ID/g; Biodistribution, Stomach ([1]; 120 min pi): 0.08 ±0.03 % ID/g; Biodistribution, lrg. Intest ([1]; 120 min pi): 0.12 ±0.05 % ID/g; Biodistribution, sm. Intest ([1]; 120 min pi): 0.11 ±0.07 % ID/g; Biodistribution, Liver ([1]; 120 min pi, listed as [^18F]3): 2.14±0.11 % ID/g; Biodistribution, Bladder (empty) ([1]; 240 min pi): 1.54 ±1.79 % ID/g; Biodistribution, Blood ([1]; 240 min pi): 0.03 ±0.01 % ID/g; Biodistribution, Bone ([1]; 240 min pi): 0.43 ±0.06 % ID/g; Biodistribution, Heart ([1]; 240 min pi): 0.02 ±0.00 % ID/g; Biodistribution, Liver ([1]; 240 min pi): 1.80 ±0.39 % ID/g; Biodistribution, Lung ([1]; 240 min pi): 0.06 ±0.00 % ID/g; Biodistribution, Muscle ([1]; 240 min pi): 0.05 ±0.05 % ID/g; Biodistribution, PSMA+ PIP tumor ([1]; 240 min pi): 36.6 ±4.3 % ID/g; Biodistribution, PSMA− flu tumor ([1]; 240 min pi): 0.03 ±0.01 % ID/g; Biodistribution, Pancreas ([1]; 240 min pi): 0.03 ±0.01 % ID/g; Biodistribution, Spleen ([1]; 240 min pi): 0.23 ±0.09 % ID/g; Biodistribution, Stomach ([1]; 240 min pi): 0.02 ±0.00 % ID/g; Biodistribution, lrg. Intest ([1]; 240 min pi): 0.06 ±0.01 % ID/g; Biodistribution, sm. Intest ([1]; 240 min pi): 0.05 ±0.01 % ID/g; Biodistribution, Kidney ([1]; 240 min pi, listed as [^18F]3): 7.42 ±0.89 % ID/g; Bone uptake ([1]; at all time points): < 1 % ID/g; Non-target tissue uptake ([1]; at or after 1 h post-injection): minimal non-target tissue uptake; Decrease of PSMA+ PC3 PIP xenograft uptake ([1]; from 30 min pi over the ensuing 4 h): about 10%; Absorbed dose, Total body ([2]; estimated human): 5.71E-03 mGy/MBq; Effective dose ([2]; estimated human): 1.36E-02 mSv/MBq; Effective dose equivalent ([2]; estimated human): 1.80E-02 mSv/MBq; Absorbed dose, Adrenals ([2]; estimated human target organ): 6.46E-03 mGy/MBq; Absorbed dose, Brain ([2]; estimated human target organ): 4.84E-03 mGy/MBq; Absorbed dose, Breasts ([2]; estimated human target organ): 3.97E-03 mGy/MBq; Absorbed dose, Gallbladder wall ([2]; estimated human target organ): 6.48E-03 mGy/MBq; Absorbed dose, Heart wall ([2]; estimated human target organ): 3.26E-03 mGy/MBq; Absorbed dose, Kidneys ([2]; estimated human target organ): 0.05 mGy/MBq and 4.81E-02 mGy/MBq; Absorbed dose, Liver ([2]; estimated human target organ): 7.38E-03 mGy/MBq; Absorbed dose, Lower large intestine wall ([2]; estimated human target organ): 9.40E-03 mGy/MBq; Absorbed dose, Lungs ([2]; estimated human target organ): 3.01E-03 mGy/MBq; Absorbed dose, Muscle ([2]; estimated human target organ): 3.95E-03 mGy/MBq; Absorbed dose, Osteogenic cells ([2]; estimated human target organ): 7.59E-03 mGy/MBq; Absorbed dose, Ovaries ([2]; estimated human target organ): 9.06E-03 mGy/MBq; Absorbed dose, Pancreas ([2]; estimated human target organ): 4.38E-03 mGy/MBq; Absorbed dose, Red marrow ([2]; estimated human target organ): 5.35E-03 mGy/MBq; Absorbed dose, Skin ([2]; estimated human target organ): 3.84E-03 mGy/MBq; Absorbed dose, Small intestine ([2]; estimated human target organ): 7.53E-03 mGy/MBq; Absorbed dose, Spleen ([2]; estimated human target organ): 6.57E-03 mGy/MBq; Absorbed dose, Stomach wall ([2]; estimated human target organ): 5.27E-03 mGy/MBq; Absorbed dose, Testes ([2]; estimated human target organ): 7.06E-03 mGy/MBq; Absorbed dose, Thymus ([2]; estimated human target organ): 4.43E-03 mGy/MBq; Absorbed dose, Thyroid ([2]; estimated human target organ): 4.45E-03 mGy/MBq; Absorbed dose, Upper large intestine wall ([2]; estimated human target organ): 6.67E-03 mGy/MBq; Absorbed dose, Urinary bladder wall ([2]; estimated human target organ): 0.15 mGy/MBq and 1.51E-01 mGy/MBq; Absorbed dose, Uterus ([2]; estimated human target organ): 1.45E-02 mGy/MBq; Time-integrated activity coefficient, Urinary bladder contents ([2]; human source organ, dynamic voiding bladder model, one hour voiding interval): 3.09E-01 MBq-h/MBq; Time-integrated activity coefficient, Heart wall [2, 3]: 3.97E-04 MBq-h/MBq; Time-integrated activity coefficient, Kidneys [2, 3]: 7.47E-02 MBq-h/MBq; Time-integrated activity coefficient, Liver [2, 3]: 4.09E-02 MBq-h/MBq; Time-integrated activity coefficient, Lower large intestine [2, 3]: 4.23E-04 MBq-h/MBq; Time-integrated activity coefficient, Lungs [2, 3]: 3.52E-03 MBq-h/MBq; Time-integrated activity coefficient, Muscle [2, 3]: 4.50E-02 MBq-h/MBq; Time-integrated activity coefficient, Pancreas [2, 3]: 1.48E-04 MBq-h/MBq; Time-integrated activity coefficient, Small intestine [2, 3]: 1.30E-03 MBq-h/MBq; Time-integrated activity coefficient, Spleen [2, 3]: 2.98E-03 MBq-h/MBq; Time-integrated activity coefficient, Stomach [2, 3]: 3.36E-04 MBq-h/MBq; Time-integrated activity coefficient, Upper large intestine [2, 3]: 4.23E-04 MBq-h/MBq; Time-integrated activity coefficient, Remainder ([2]; human, remainder of body, from mouse data): 8.51E-01 MBq-h/MBq
